From PMC13500670, “The U1 snRNP protein U1C and Helix H of U1 snRNA are critical for small molecule splicing modulator function” (Nature Communications, 2026)
pKd: −log10 of the molar value.

Legend:
[1] = test system: cassette exon / GA/GU iExon inclusion, HEK293 cells, scr siRNA; assay: RNA-seq splicing analysis, compound dose response, scrambled (mock) siRNA; format: cell-based, human
Description: (§1) Skipped exons are highly enriched for noncanonical 5′ ss sequences (on either the intronic or exonic side), which account for 90% of skipped exons (Supplementary Fig. 8C). For example, among skipped exons with a canonical exonic 5′ ss sequence, 74% contain noncanonical intron sequence. These observations are consistent with the previous published role for U1C stabilization of the U1 snRNA-pre-mRNA duplex at the 5′ ss[25]–[28]. […] We will refer to these as class I exons for clarity in later discussion.
(§2) We next examined the effect of U1C knockdown on compound-mediated splicing. […] We next used the complete dose response to calculate the effective concentration at which deltaPSIcompound-DMSO is 30 (EC-dPSI30).
(§3) HEK293T cells were grown in DMEM media with 10% FBS. 500,000 cells in 1.75 mL of media were plated into a 6-well plate for approximately 6 h. Either siRNA negative control (ThermoFisher Silencer^TM Negative control #2, AM4613) or U1C siRNA (ThermoFisher Silencer^TM Select Pre-designed siRNA, S13225) were transfected for a final concentration of 25 nM using Invitrogen Lipofectamine RNAiMax (13778-150). In brief, 10 μL 5 μM siRNA was added to 115 μL of OptiMEM, while 5 μL Lipofectamine added to 120 μL OptiMEM for 5 minu before mixing the solutions and incubating for 20 min. 250 μL of Lipofectamine:siRNA solution was gentle added to the 1.75 mL cells. After 24 h post-transfection, cells were treated with 10 μL compound resuspended in DMSO. […] Each compound-treated experimental condition was treated and collected in duplicate, while four DMSO only treated samples per siRNA transfection were collected. RNA was isolated using KingFisher^TM Apex instrument and the MagMAX™ mirVana™ Total RNA Isolation Kit (A27828) by Thermo Fisher according to manufacturer’s protocol. Isolated RNA was submitted to Admera Health for library preparation (polyA selected, stranded) and mRNA-sequencing and >20 M 150 bp pair-end reads were returned.
RNAseq and splicing analysis were described earlier using DEDseq (https:// github.com/liwc01/DEDSeq[18]) with minor modifications. RNA sequencing reads were mapped to human genome (hg19) using STAR (version 2.7.10b); only uniquely mapped reads (with MAPQ > 10) with <5 nt/100 nt mismatches and properly paired reads were used. For splicing analysis, all junction reads (read with a gap in alignment indicating splicing) were used, including the ones mapped to unannotated splice sites. Reads were counted for different exons (for cassette exon [CE]) or exonic regions (for A5′ss or A3′ss). For each splicing event, a percent-spliced-in (PSI) value was calculated using the percent of average read number supporting the inclusion among all reads supporting either the inclusion or the exclusion. A minimum of 10 for the denominator of PSI calculation was required. Otherwise, a “NA” value would be generated. PSI values for biological replicates were averaged, and the PSI difference between the two treatment groups was calculated. For a statistical test, a 2 × 2 read counts table was made for each event, with rows for reads supporting inclusion or exclusion, and columns for the two comparing sample groups. Fisher’s exact test was used for the statistical tests. For biological replicates, each pair of the testing and control sample was analyzed by Fisher’s exact test and the geometric mean of all P-values was reported as a final P-value. PSI change (deltaPSI) of >10% (or < −10%) and P < 0.001 was used to select splicing events being regulated by the treatment. PSI calculation, Fisher’s exact test were performed using R (4.0.5). 5′ ss composition analysis was performed as described in ref. [25]. Potency of splicing modulator was determined by plotting dPSI and identifying the concentration at which the change in PSI reached 30% and reported as EC_dPSI30.

[2] = test system: cassette exon / GA/GU iExon inclusion, HEK293 cells, U1C KD; assay: RNA-seq splicing analysis, compound dose response, U1C knockdown; format: cell-based, human
Description: as §1, §2, §3
RNAseq and splicing analysis were described earlier using DEDseq (https:// github.com/liwc01/DEDSeq[18]) with minor modifications. RNA sequencing reads were mapped to human genome (hg19) using STAR (version 2.7.10b); only uniquely mapped reads (with MAPQ > 10) with <5 nt/100 nt mismatches and properly paired reads were used. For splicing analysis, all junction reads (read with a gap in alignment indicating splicing) were used, including the ones mapped to unannotated splice sites. Reads were counted for different exons (for cassette exon [CE]) or exonic regions (for A5′ss or A3′ss). For each splicing event, a percent-spliced-in (PSI) value was calculated using the percent of average read number supporting the inclusion among all reads supporting either the inclusion or the exclusion. A minimum of 10 for the denominator of PSI calculation was required. Otherwise, a “NA” value would be generated. PSI values for biological replicates were averaged, and the PSI difference between the two treatment groups was calculated. For a statistical test, a 2 × 2 read counts table was made for each event, with rows for reads supporting inclusion or exclusion, and columns for the two comparing sample groups. […] For biological replicates, each pair of the testing and control sample was analyzed by Fisher’s exact test and the geometric mean of all P-values was reported as a final P-value. […] Potency of splicing modulator was determined by plotting dPSI and identifying the concentration at which the change in PSI reached 30% and reported as EC_dPSI30.

[3] = molecular target: T1, U1 snRNP + FOXM1 5' ss oligo (Homo sapiens, UniProt P09234); assay: FP: U1 snRNP binding to FOXM1 5' ss oligo (Supplementary Fig. 2)
T1 construct: host or cells: either HeLa-S3 U1A-HTP cells (native, as F1) or E. coli proteins (reconstituted, as F2)
Procedure: All of 5′-FAM labeled RNA oligos used in this study were synthesized and purified by IDT (USA). Fluorescence polarization (FP) assays were performed in binding buffer (20 mM HEPES pH 7.5, 1 mM MgCl2, 200 mM KCl, 0.01% TritonX-100, 0.1%PEG3350, 2%DMSO) at room temperature using a Envision HTS Plate Reader system (Revvity). Each reaction system contains 3 nM of FAM-labeled RNA oligo, reconstituted U1 snRNP (or native U1 snRNP, or full-length U1 snRNA, or the 5′end of U1 snRNA) at twofold increasing concentrations, 800 nM (for reconstituted U1 snRNP) or 400 nM (for native U1 snRNP) U1C, different small molecules in DMSO (10 μM unless otherwise stated). The equilibrium dissociation constants (Kd) of binding reaction were calculated using the following single-site binding model formula in GraphPad Prism: y=START+(END−START)x/kD+x where x and y represent the concentration of U1 snRNP (or U1 snRNA) and the polarization value measured respectively, START represents the polarization value of protein-free nucleic acid probe, END represents the maximum polarization value when U1 snRNP (or U1 snRNA) binds to the fluorescently labeled 5′ ss oligo. All FP experiments are carried out in two distinct biological replicates and error bars represent the standard deviation.

[4] = molecular target: short RNA duplex of 5' ss (11 nt) and U1 snRNA (11 nt); conditions: NMR construct without other U1 snRNP components; read-out: Kd between the compound and the short RNA duplex; cited from earlier work

SMILES | geomean pEC_dPSI30 for all GA/GU iExons ([1]; Fig. 8C, mock knockdown, -log10 of compound concentration when dPSI achieves 30%) | saturation PSI of PDXDC1 iExon ([1]; highest dose, mock and U1C KD reach similar saturation) | U1CKD Log10 effect ([2]; Fig. 8C picture, pEC-dPSI30 mock versus U1C KD) | geomean pEC_dPSI30 for all GA/GU iExons ([2]; Fig. 8C, U1C KD) | effect on binding between U1 snRNP and FOXM1 5' ss oligo [3] | pKd [4]
Cc1cn2nc(-c3cc(=O)n4cc(N5CCNC6(CC6)C5)ccc4n3)cc(C)c2n1 [Risdiplam, risdiplam] | 6.05 | 40 | -0.42 | 5.63 | no effect | 
Cc1cn2cc(-c3cc(=O)n4cc(N5CCN(C)CC5)ccc4n3)cc(F)c2n1 [SMN-C5] |  |  |  |  |  | 4.55
